Experimental data reported in patent US12247004B2, “2-amino-N-(amino-oxo-aryl-lambda6-sulfanylidene)acetamide compounds and their therapeutic use” (Oxford Drug Design Limited, priority 2019, dated 2025).
≈ marks a conversion by molar mass, not a printed value. Counter-ions that a name gives are not always drawn. Like-named read-outs stand apart in the source and are kept apart here.

Columns and labels:
[1] = Human cell viability / cytotoxicity (CellTiter-Glo, 24 hours); type: cell-based; conditions: human, HepG2 cells (ATCC HB-8065); HepG2 ATCC HB-8065, 24 hours; read-out: Cytotoxicity in HepG2 ATCC HB-8065 Cell Line, IC50
Experimental: Study 3—Human Cell Viability
Compounds were assessed for potential non-specific cytotoxic effects against a human hepatic cell line (HepG2 ATCC HB-8065). 96-well plates were seeded with HepG2 cells in concentration of 15,000 cells per well in 100 μL of MEM growth media completed with 1% NEAA and 1% sodium pyruvate. Border wells were filled with 100 μL of sterile PBS. Two days upon cells incubation, the compounds were added. Compound dilutions were prepared in 96-well V-bottom plate in pure DMSO. Growth media from 5 plates were aspirated and replaced with 98.7 μL of fresh growth media. 1.28 μL of compounds prepared in V-bottom plates were transferred with multichannel pipette into test plates (78.1× dilution). Final DMSO concentration was 1.28% per well. In control wells, 1.28 μL of DMSO was added in 98.7 μL of media. Compounds were tested in duplicates. Cells were incubated with compounds for 24 hours when cell viability was assessed by measuring ATP levels. ATP levels were measured by adding 50 μL of CellTiter-Glo reagent to each well and after 5 minutes of incubation luminescence was measured with SpectraMax i3. The potential effect of tested compounds on cell viability was determined by comparing the signal obtained in presence of different concentrations of the compounds with those obtained in the presence of DMSO only. The potential effects were then calculated and presented as IC50 values (μg/mL).

[2] = molecular target: Leucyl-tRNA synthetase (LeuRS) (Escherichia coli (strain K12), UniProt P07813); assay: Leucyl-tRNA synthetase enzyme inhibition (AMP-Glo; single point % inhibition at 100 μM and IC50); type: biochemical
Description: Study 1—Enzyme Inhibition
The aminoacylation reaction catalyzed by aminoacyl-tRNA synthetases (aaRS) takes place in two steps. In the first step, aaRS activates its cognate amino acid with ATP; and in the second step the activated amino acid is loaded to its corresponding tRNA. This reaction can be summarized as follows: aaRS+aa+ATP=aaRS-aa-AMP+PPi aaRS-aa-AMP+tRNA=aa-tRNA+AMP+aaRS
wherein: aaRS, aminoacyl-tRNA synthetase; aa, amino acid; aaRS-aa-AMP, enzyme-bound to aminoacyl-adenylate; AMP, adenosine monophosphate; aa-tRNA, aminoacyl-tRNA, PPi, inorganic pyrophosphate.
a. Single Point Percentage Inhibition
The activity of the pathogenic aaRSs was monitored by measuring AMP production using the commercial kit AMP-Glo (Promega, Madison, USA).
Ligand stock solutions were prepared in 100% DMSO at 10 mM concentration. An assay buffer consisting of 100 mM Tris HCl pH 7.6, 40 mM MgCl, 20 mM KCl and 150 mM NaCl was prepared in dH2O.
Using the same enzymatic assay in a 384-well plate format, ten point concentration response curves were generated for each compound using a top concentration of 10 μM. The known inhibitor LeuAMS was used as a positive control for the LeuRS assay. 100% DMSO was used as a negative control. The IC50 was calculated based on non-linear regression analysis.

[3] = tested on: bacteria (ATCC reference strains); assay: Antibacterial activity, MIC by broth micro-dilution (CLSI)
[4] = E. coli LeuRS, read-out: Enzyme Inhibition - IC50, E. coli LeuRS

Sequence of Leucyl-tRNA synthetase (LeuRS) (P07813 whole entry, looked up): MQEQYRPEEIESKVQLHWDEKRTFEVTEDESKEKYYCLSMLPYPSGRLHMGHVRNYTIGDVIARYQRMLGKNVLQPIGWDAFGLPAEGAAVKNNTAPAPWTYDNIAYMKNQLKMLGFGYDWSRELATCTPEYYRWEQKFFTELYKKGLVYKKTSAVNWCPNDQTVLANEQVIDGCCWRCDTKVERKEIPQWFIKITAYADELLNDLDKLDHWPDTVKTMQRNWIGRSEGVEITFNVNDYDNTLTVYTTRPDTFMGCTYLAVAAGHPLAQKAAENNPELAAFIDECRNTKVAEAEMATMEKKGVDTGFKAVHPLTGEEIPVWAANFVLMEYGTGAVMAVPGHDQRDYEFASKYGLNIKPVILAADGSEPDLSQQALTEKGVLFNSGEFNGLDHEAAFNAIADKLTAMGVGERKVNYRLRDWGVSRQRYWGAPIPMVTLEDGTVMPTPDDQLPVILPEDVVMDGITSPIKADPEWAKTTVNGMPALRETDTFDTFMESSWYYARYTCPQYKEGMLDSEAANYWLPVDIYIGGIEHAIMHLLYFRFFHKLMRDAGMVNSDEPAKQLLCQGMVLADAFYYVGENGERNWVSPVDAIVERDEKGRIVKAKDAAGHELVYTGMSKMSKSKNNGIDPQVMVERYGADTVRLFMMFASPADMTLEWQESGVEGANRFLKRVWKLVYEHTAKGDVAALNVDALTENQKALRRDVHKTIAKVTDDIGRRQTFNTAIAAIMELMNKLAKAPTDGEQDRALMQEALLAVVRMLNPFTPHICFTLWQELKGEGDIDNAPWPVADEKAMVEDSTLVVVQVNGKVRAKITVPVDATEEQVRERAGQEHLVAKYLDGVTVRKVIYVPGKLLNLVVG

## CC(C)C[C@H](N)C(=O)N=S(N)(=O)c1csc(Cl)c1 (mixture of isomers) [ANASIA-099]
[1]
  IC50 at 24 h: > 64 µg/mL
[2]
  IC50: 72.2 nM

## Cc1ccc([S@@](N)(=O)=NC(=O)[C@@H](N)CC(C)C)cc1 [ANASIA-021-1]
[1]
  IC50 at 24 h: > 64 µg/mL
[2]
  IC50: 2060 nM

## CC(C)C[C@H](N)C(=O)N=[S@](N)(=O)c1cccc(F)c1 [ANASIA-011-1]
[1]
  IC50 at 24 h: > 64 µg/mL

## CC(C)C[C@H](N)C(=O)N=[S@](N)(=O)c1ccc(C(F)F)s1.Cl [ANASIA-017-1]
[1]
  IC50 at 24 h: > 64 µg/mL
[3]; Acinetobacter baumannii, read-out: Antibacterial Activity (MIC), E = A. baumannii B1931
  MIC: > 64 µg/mL
[3]; Escherichia coli, ATCC25922, read-out: Antibacterial Activity (MIC), A = E. coli ATCC 25922
  MIC: 4 µg/mL
[3]; Escherichia coli, BAA2469, read-out: Antibacterial Activity (MIC), G = E. coli BAA-2469
  MIC: 22.6 µg/mL
[3]; Haemophilus influenzae, ATCC49247, read-out: Antibacterial Activity (MIC), F = H. influenzae ATCC 49247
  MIC: 4 µg/mL
[3]; Klebsiella pneumoniae, ATCC700603, read-out: Antibacterial Activity (MIC), C = K. pneumoniae ATCC 700603
  MIC: > 256 µg/mL
[3]; Pseudomonas aeruginosa, ATCC27853, read-out: Antibacterial Activity (MIC), D = P. aeruginosa ATCC 27853
  MIC: > 64 µg/mL

## CC(C)C[C@H](N)C(=O)N=[S@@](N)(=O)c1ccc(Cl)c(Cl)c1 [ANASIA-042-2]
[1]
  IC50 at 24 h: > 64 µg/mL
[2]; [4]
  IC50: 7920 nM

## CC(C)C[C@H](N)C(=O)N=[S@@](N)(=O)c1cccc(F)c1 [ANASIA-011-2]
[1]
  IC50 at 24 h: > 64 µg/mL

## CC(C)C[C@H](N)C(=O)N=S(N)(=O)c1cc2ccccc2s1 (some centres unmarked) [ANASIA-023]
[1]
  IC50 at 24 h: > 64 µg/mL
[2]
  IC50: 1290 nM

## CC(C)C[C@H](N)C(=O)N=[S@@](N)(=O)c1cccc(Oc2ccc(Cl)cc2)c1 [ANASIA-047-2]
[1]
  IC50 at 24 h: 45.3 µg/mL (≈ 114 µM)
[2]; [4]
  IC50: 1290 nM

## CC(C)C[C@H](N)C(=O)N=[S@](N)(=O)c1cccc(-c2cccc(F)c2)c1 [ANASIA-051-1, (S)-2-amino-N—((S)-amino(3′-fluoro-[1,1′-biphenyl]-3-yl)(oxo)-λ6-sulfanylidene)-4-methylpentanamide hydrochloride]
[1]
  IC50 at 24 h: > 64 µg/mL
[2]
  IC50: 601 nM

## CC(C)C[C@H](N)C(=O)N=[S@](N)(=O)c1cccc(C(C)(C)C)c1 [ANASIA-049-1]
[1]
  IC50 at 24 h: > 64 µg/mL
[2]
  IC50: 296 nM

## CC[C@H](C)[C@H](N)C(=O)N=S(N)(=O)c1ccc2ccccc2c1 (some centres unmarked) [ANASIA-030]
[1]
  IC50 at 24 h: > 64 µg/mL

## CC(C)C[C@H](N)C(=O)N=S(N)(=O)c1cccc(F)c1 (some centres unmarked) [ANASIA-011]
[1]
  IC50 at 24 h: > 64 µg/mL

## CC(C)C[C@H](N)C(=O)N=[S@@](N)(=O)c1cccc(C(C)C)c1 [ANASIA-043-2]
[1]
  IC50 at 24 h: > 64 µg/mL
[2]; [4]
  IC50: 735 nM

## CC(C)C[C@H](N)C(=O)N=[S@](N)(=O)c1ccc(Cl)s1 [ANASIA-009-1]
[1]
  IC50 at 24 h: > 64 µg/mL
[2]
  IC50: 1830 nM

## Cc1cc(F)ccc1[S@@](N)(=O)=NC(=O)[C@@H](N)CC(C)C [ANASIA-027-1]
[1]
  IC50 at 24 h: > 64 µg/mL
[2]
  IC50: 4530 nM

## CC(C)C[C@H](N)C(=O)N=[S@@](N)(=O)c1ccccc1 [ANASIA-003-2, (S)-2-amino-N—((R)-amino(oxo)(phenyl)-λ6-sulfanylidene)-4-methylpentanamide hydrochloride]
[1]
  IC50 at 24 h: > 64 µg/mL
[2]; [4]
  IC50: 2260 nM

## CC(C)C[C@H](N)C(=O)N=[S@](N)(=O)c1ccc(F)c2ccccc12 [ANASIA-020-1]
[1]
  IC50 at 24 h: > 64 µg/mL
[2]
  IC50: 2050 nM

## CC(C)C[C@H](N)C(=O)N=S(N)(=O)c1ccc2ccccc2c1 (some centres unmarked) [ANASIA-013]
[1]
  IC50 at 24 h: > 64 µg/mL
[2]; [4]
  IC50: 3570 nM

## CC(C)C[C@H](N)C(=O)N=[S@](N)(=O)c1c(F)cccc1F [ANASIA-026-1]
[1]
  IC50 at 24 h: > 64 µg/mL
[2]
  IC50: 564 nM

## CC(C)C[C@H](N)C(=O)N=[S@@](N)(=O)c1cccc(Cl)c1Cl [ANASIA-046-2]
[1]
  IC50 at 24 h: > 64 µg/mL
[2]
  IC50: 2570 nM

## CC(C)C[C@H](N)C(=O)N=[S@@](N)(=O)c1ccc(F)c2ccccc12 [ANASIA-020-2]
[1]
  IC50 at 24 h: > 64 µg/mL
[2]; [4]
  IC50: 4090 nM

## CC(C)C[C@H](N)C(=O)N=[S@@](N)(=O)c1cccc(-c2ccccc2)c1 [ANASIA-018-2]
[1]
  IC50 at 24 h: > 64 µg/mL
[2]; [4]
  IC50: 2970 nM

## CC(C)C[C@H](N)C(=O)N=[S@@](N)(=O)c1c(F)cccc1F [ANASIA-026-2]
[1]
  IC50 at 24 h: > 64 µg/mL
[2]; [4]
  IC50: 4420 nM

## CC(C)C[C@H](N)C(=O)N=[S@](N)(=O)c1ccc(Cl)c(Cl)c1 [ANASIA-042-1]
[1]
  IC50 at 24 h: > 64 µg/mL
[2]
  IC50: 1110 nM

## CC(C)C[C@H](N)C(=O)N=[S@](N)(=O)c1cccs1.Cl (single isomer, unassigned) [ANASIA-007-1, (S)-2-amino-N—((S)-amino(oxo)(thiophen-2-yl)-λ6-sulfanylidene)-4-methylpentanamide hydrochloride]
[1]
  IC50 at 24 h: > 64 µg/mL
[2]; [4]
  IC50: 63.3 nM

## CC(C)C[C@H](N)C(=O)N=S(N)(=O)c1cccc2ccccc12 (some centres unmarked) [ANASIA-016]
[1]
  IC50 at 24 h: > 64 µg/mL
[2]; [4]
  IC50: 3040 nM

## Cc1cnc(S(N)(=O)=NC(=O)[C@@H](N)CC(C)C)s1 (some centres unmarked) [ANASIA-039]
[1]
  IC50 at 24 h: > 64 µg/mL
[2]; [4]
  IC50: 8830 nM

## CC(C)C[C@H](N)C(=O)N=[S@@](N)(=O)c1sccc1Cl [ANASIA-012-2]
[1]
  IC50 at 24 h: > 64 µg/mL
[2]; [4]
  IC50: 3230 nM

## Cc1ccsc1[S@](N)(=O)=NC(=O)[C@@H](N)CC(C)C [ANASIA-015-2]
[1]
  IC50 at 24 h: > 64 µg/mL
[2]; [4]
  IC50: 1860 nM

## CC(C)C[C@H](N)C(=O)N=[S@@](N)(=O)c1cccc(Cl)c1F [ANASIA-001-2]
[1]
  IC50 at 24 h: > 64 µg/mL
[2]; [4]
  IC50: 3530 nM

## CC(C)C[C@H](N)C(=O)N=[S@](N)(=O)c1cccc(-c2ccccc2)c1 [ANASIA-018-1]
[1]
  IC50 at 24 h: > 64 µg/mL
[2]
  IC50: 223 nM

## CC(C)C[C@H](N)C(=O)N=[S@@](N)(=O)c1cc(F)ccc1F [ANASIA-024-2]
[1]
  IC50 at 24 h: > 64 µg/mL
[2]; [4]
  IC50: 6280 nM

## Cc1ccc([S@](N)(=O)=NC(=O)[C@@H](N)CC(C)C)s1 [ANASIA-014-2]
[1]
  IC50 at 24 h: > 64 µg/mL
[2]; [4]
  IC50: 3980 nM

## CC(C)C[C@H](N)C(=O)N=S(N)(=O)c1ccc(Cl)c2ccccc12 (some centres unmarked) [ANASIA-019]
[1]
  IC50 at 24 h: > 64 µg/mL
[2]; [4]
  IC50: 2260 nM

## CC(C)C[C@H](N)C(=O)N=[S@@](N)(=O)c1ccsc1 [ANASIA-008-2]
[1]
  IC50 at 24 h: > 64 µg/mL
[2]; [4]
  IC50: 2000 nM

## Cc1cccc([S@@](N)(=O)=NC(=O)[C@@H](N)CC(C)C)c1 [ANASIA-005-1]
[1]
  IC50 at 24 h: > 64 µg/mL
[2]
  IC50: 3030 nM

## CC(C)C[C@H](N)C(=O)N=[S@](N)(=O)c1ccc(Cl)cc1 [ANASIA-040-1]
[1]
  IC50 at 24 h: > 64 µg/mL
[2]
  IC50: 2540 nM

## CC(C)C[C@H](N)C(=O)N=[S@@](N)(=O)c1cccc2ccccc12 [ANASIA-016-2]
[1]
  IC50 at 24 h: > 64 µg/mL
[2]; [4]
  IC50: 5560 nM

## CC(C)C[C@H](N)C(=O)N=[S@](N)(=O)c1cccc2ccccc12 [ANASIA-016-1]
[1]
  IC50 at 24 h: > 64 µg/mL
[2]
  IC50: 2200 nM

## CC(C)C[C@H](N)C(=O)N=[S@@](N)(=O)c1cccc(C#N)c1 [ANASIA-041-2]
[1]
  IC50 at 24 h: > 64 µg/mL
[2]; [4]
  IC50: 832 nM

## COc1ccc([S@@](N)(=O)=NC(=O)[C@@H](N)CC(C)C)cc1C [ANASIA-022-1]
[1]
  IC50 at 24 h: > 64 µg/mL
[2]
  IC50: 6570 nM
